# Measured values reported in patent US10440955B2, “Methods comprising a biocidal polyamine” (Curza Global, LLC, priority 2013, dated 2019).
# How the values were obtained:
# biofilm formation = conditions: study by Losick and co-workers (Kolodkin-Gal et al., Cell 149 (2012)); cited from earlier work
# P. aeruginosa biofilms [1] = assay: MBEC, MBEC Inoculation Tray (Innovotech), to 10^2 CFU/peg in 24 hours; type: cell-based; conditions: Pseudomonas aeruginosa; Table 3A c5; group head missing, probably MBEC; read-out: MICs (μg/mL): P. aeruginosa (second P. aeruginosa)
# Source text: To determine the MBEC of each polyamine compound, the MBEC Inoculation Tray by Innovotech, formerly known as the Calgary biofilm device, was used. Within this device, biofilms grow on the surface of polystyrene pegs, 96 of which are attached to a lid. These pegs are inserted into a flat bottom 96-well plate. In this instance, the MBEC of a molecule was defined as the concentration of compound (in μg/mL) required to reduce 10^5 or 10^6 CFU/peg (biofilm levels varied by isolate) to 10^2 CFU/peg in a 24-hour period.
# Following the manufacturer's guidelines, biofilms were grown on the surface of each peg by first making a 0.5 McFarland of each isolate. The 0.5 McFarland was diluted 1:100 in CAMHB. Into each well of a flat bottom 96-well plate, 150 μL of broth were pipetted. The plate was shaken at 100 rpm for 24 hours (P. aeruginosa and A. baumannii) or 48 hours (MRSA). The pegs were then placed into a separate flat bottom 96-well plate for 10 seconds with 200 μL of phosphate buffered saline (PBS) in each well to remove nonadherent cells. The lid was then placed into a 96-well plate that contained varying concentrations of antimicrobial with 200 μL per well. The plate was incubated for 24 hours at 37° C. after which time 100 μL of broth were plated on TSA. TSA plates were incubated 24 hours at 37° C. and the number of CFU counted to calculate the CFU/peg. […]
# P. aeruginosa = assay: MIC, 96-well CAMHB, 10^5 to 10^2 CFU/mL in 24 hours; type: cell-based, Pseudomonas aeruginosa; conditions: Pseudomonas aeruginosa; Table 3A c2; read-out: MICs (μg/mL): P. aeruginosa
# In short: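 Broth microdilution in CAMHB with about 5×10^5 CFU/mL inoculum, incubated 24 h at 37 °C with graded polyamine compound concentrations. Surviving CFU/mL determined by plating each well on TSA for 24 h at 37 °C; n=8 per concentration.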
# P. aeruginosa biofilms [2] = assay: EBEC, high number biofilms on PEEK membranes, 10^9 to 10^2 CFU/PEEK membrane in 24 hours; type: cell-based; conditions: Pseudomonas aeruginosa; Table 3B c3; group head missing; read-out: MICs (μg/mL) II: P. aeruginosa
# Protocol: In addition to determining the MIC and the MBEC of polyamine compounds against planktonic bacteria and low number biofilms, our group wanted to determine the efficacy of polyamine compounds against high number biofilms. To do so, biofilms were grown on the surface of polyetheretherketone (PEEK) membranes using a membrane biofilm reactor. This reactor is similar to the CDC biofilm reactor, but rather than growing biofilms on coupon surfaces, the reactor was modified to hold PEEK membranes. In short, to grow biofilms within this system, 500 mL of brain heart infusion (BHI) broth were inoculated with 1 mL of a 0.5 McFarland. The reactor was placed on a hot plate set at 34° C. and the bacteria were grown under batch conditions for 24 hours. Following this protocol, biofilms typically grow to 10^9 CFU/PEEK membrane. […] A solution of 10% BHI was then flowed through the reactor at a rate of 6.94 mL/min for an additional 24 hours. PEEK membranes were then removed and placed into 2 mL of CAMHB that contained a desired concentration of polyamine compound or antibiotic. The EBEC was defined as the concentration of antimicrobial required to reduce a biofilm from approximately 10^9 CFU/PEEK membrane to approximately 10^2 CFU/PEEK membrane in a 24-hour period.
# biofilms of MRSA = conditions: understanding of the inventors; no own test described; cited from earlier work
# L-929 cells (ATCC CCL-1) = assay: Minimal Essential Media (MEM) Elution cytotoxicity test; type: cell-based; conditions: Table 9A
# In short: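 L-929 cells (ATCC CCL-1) were seeded in multiwell plates and grown to roughly 80% confluence. Test article dilutions (1:2, 1:4, 1:8, 1:16) and control extracts were applied in triplicate and incubated 48±3 hours at 37±1° C. in 5±1% CO2. Wells were scored microscopically for morphological cytotoxicity on a 0–4 scale and averaged; Pass required grade not greater than 2 per USP <87>.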
smiles,measurement,setting,value
"NCCCNCCCN [norspermidine, N-(3-aminopropyl)propane-1,3-diamine]",concentration inhibiting biofilm formation,biofilm formation,25 µM
"NC[C@H]1O[C@H](O[C@H]2[C@H](O)[C@@H](O[C@H]3O[C@H](CO)[C@@H](O)[C@H](N)[C@H]3O)[C@H](N)C[C@@H]2N)[C@H](N)C[C@@H]1O [Tobramycin, tobramycin, reference compound]",MIC,P. aeruginosa biofilms [1],100 µg/mL
same,MIC,P. aeruginosa,2 µg/mL
same,MIC,P. aeruginosa biofilms [2],2000 µg/mL
NCCCCNCCCN [spermidine],concentration at which active (biofilm formation),biofilm formation,~1 mM
"N=C(NCCCCCCNC(=N)NC(=N)Nc1ccc(Cl)cc1)NC(=N)Nc1ccc(Cl)cc1.O=C(O)[C@H](O)[C@@H](O)[C@H](O)[C@H](O)CO.O=C(O)[C@H](O)[C@@H](O)[C@H](O)[C@H](O)CO [chlorhexidine gluconate, reference compound]",biofilm dispersal effect (comparison),biofilms of MRSA,not seen
same,Results Pass/Fail,L-929 cells (ATCC CCL-1); 3.125 μg/mL,Pass (receives a passing score (Pass) if the reactivity grade is not greater than grade 2 or a mild reactivity)
same,Results Pass/Fail,L-929 cells (ATCC CCL-1); 6.25 μg/mL,Pass (receives a passing score (Pass) if the reactivity grade is not greater than grade 2 or a mild reactivity)
same,Results Pass/Fail,L-929 cells (ATCC CCL-1); 12.5 μg/mL,Pass (receives a passing score (Pass) if the reactivity grade is not greater than grade 2 or a mild reactivity)
same,Results Pass/Fail,L-929 cells (ATCC CCL-1); 25 μg/mL,"Fail (a numerical grade greater than 2 is considered a cytotoxic effect, or a failing score (Fail))"
same,Results Pass/Fail,L-929 cells (ATCC CCL-1); 1.563 (unit not given),Pass (receives a passing score (Pass) if the reactivity grade is not greater than grade 2 or a mild reactivity)
